The target in this assay is T1, HCV1b NS5B polymerase delta 21 (Hepatitis C virus genotype 1b, UniProt P26663).
T1 construct: purified HCV1b NS5B polymerase delta 21
As to the kind of experiment: RNA-Dependent RNA HCV NS5B (Polymerase) Assay and IC50 Determination. It is filed as biochemical. Here is the method:
RNA-Dependent RNA HCV NS5B (Polymerase) Assay and IC50 Determination
In vitro RNA-dependent RNA polymerase activity was determined in a reaction mixture (50 μL) containing 50 mM Tris-HCl, pH 7.5, 5 mM MgCl2, 1 mM dithiothreitol, 0.5% Triton® X-100, 10 μM of UTP, 0.1-0.5 μCi of α-^32P UTP (Perkin Elmer Life Sciences), 1 μg of polyA:U16 (Midland Oligo), and 0.6 μg of purified HCV1b NS5B polymerase delta 21. Different concentrations of compounds were added to the reaction mixtures. The reaction was carried out at RT (23° C.) for 60 min and then stopped by the addition of 100 μL of 50 mM EDTA. The reaction mixtures were filtered through either a DE81 membrane or a positively charged nylon membrane, and the membranes were then extensively washed with 30 mM sodium citrate, pH 7.0 and 300 mM NaCl. The radiolabeled RNA products were quantitated using a Storm™ Phosphorlmager™ (GE Life Sciences). IC50 values were calculated using GraFit 6 and GraphPad Prism 5 from triplicate assays.

This note sets out measurements from patent US8771665B2 (Cocrystal Discovery, Inc., priority 2010, dated 2014).

Broadly, the IC50 is the point on the concentration scale where inhibition reaches its midpoint. A high value points to weaker potency.

Some results are limits rather than exact numbers.

T1 sequence (P26663 2420-2989): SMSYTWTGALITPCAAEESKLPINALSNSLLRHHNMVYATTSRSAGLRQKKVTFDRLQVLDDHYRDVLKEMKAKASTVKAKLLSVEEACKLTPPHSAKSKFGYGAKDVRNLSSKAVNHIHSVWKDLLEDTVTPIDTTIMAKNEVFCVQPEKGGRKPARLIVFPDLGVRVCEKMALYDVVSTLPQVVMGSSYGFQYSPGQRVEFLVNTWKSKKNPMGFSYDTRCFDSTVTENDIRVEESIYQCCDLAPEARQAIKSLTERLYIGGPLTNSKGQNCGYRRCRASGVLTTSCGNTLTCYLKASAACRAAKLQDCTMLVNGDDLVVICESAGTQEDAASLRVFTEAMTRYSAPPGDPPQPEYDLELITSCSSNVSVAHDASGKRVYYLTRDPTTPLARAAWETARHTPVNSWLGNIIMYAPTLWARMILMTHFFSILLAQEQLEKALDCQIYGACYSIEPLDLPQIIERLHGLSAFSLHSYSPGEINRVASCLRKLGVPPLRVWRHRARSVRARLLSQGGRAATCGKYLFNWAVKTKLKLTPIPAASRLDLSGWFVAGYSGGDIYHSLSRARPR

With `CC1CCC(C2=C(c3cc(I)sc3C(=O)O)CCN(C)C2)CC1` (centres unmarked) [Example 002, 5-Iodo-3-[1-methyl-5-(4-methyl-cyclohexyl)-1,2,3,6-tetrahydro-pyridin-4-yl]-thiophene-2-carboxylic acid], the IC50 is above 10 µM.

As to `CC1CCC(C2=C(c3cc(-c4ccc(N)cc4)sc3C(=O)O)CCN(C)C2)CC1` (centres unmarked) [Example 004, 5-(4-Amino-phenyl)-3-[1-methyl-5-(4-methyl-cyclohexyl)-1,2,3,6-tetrahydro-pyridin-4-yl]-thiophene-2-carboxylic acid], the IC50 was below 3 µM.

For `CC1CCC(C2=C(c3cc(-c4ccccc4)sc3C(=O)O)CCN(CC3CC3)C2)CC1` (centres unmarked) [Example 006, 3-[1-Cyclopropylmethyl-5-(4-methyl-cyclohexyl)-1,2,3,6-tetrahydro-pyridin-4-yl]-5-phenyl-thiophene-2-carboxylic acid], the IC50 is below 3 µM.

Turning to `CCCCN1CCC(c2cc(-c3ccccc3)sc2C(=O)O)=C(C2CCC(C)CC2)C1` (centres unmarked) [Example 007, 3-[1-Butyl-5-(4-methyl-cyclohexyl)-1,2,3,6-tetrahydro-pyridin-4-yl]-5-phenyl-thiophene-2-carboxylic acid], the IC50 is below 3 µM.

As to `CC1CCC(C2=C(c3cc(-c4ccccc4)sc3C(=O)O)CCN(CCCO)C2)CC1` (centres unmarked) [Example 008, 3-[1-(3-Hydroxy-propyl)-5-(4-methyl-cyclohexyl)-1,2,3,6-tetrahydro-pyridin-4-yl]-5-phenyl-thiophene-2-carboxylic acid], the IC50 is below 3 µM.

With `CC1CCC(C2=C(c3cc(-c4ccccc4)sc3C(=O)O)CCN(C(C)C)C2)CC1` (centres unmarked) [Example 009, 3-[1-Isopropyl-5-(4-methyl-cyclohexyl)-1,2,3,6-tetrahydro-pyridin-4-yl]-5-phenyl-thiophene-2-carboxylic acid], the concentration for half-maximal inhibition (IC50) fell in the range of 3 to 10 µM.

`CC1CCC(C2=C(c3cc(C#Cc4ccccc4)sc3C(=O)O)CCN(C)C2)CC1` (centres unmarked) [Example 010, 3-[1-Methyl-5-(4-methyl-cyclohexyl)-1,2,3,6-tetrahydro-pyridin-4-yl]-5-phenylethynyl-thiophene-2-carboxylic acid] registered an IC50 above 10 µM.

`CC1CCC(C2=C(c3cc(C#CC(C)(C)O)sc3C(=O)O)CCN(C)C2)CC1` (centres unmarked) [Example 011, 5-(3-Hydroxy-3-methyl-but-1-ynyl)-3-[1-methyl-5-(4-methyl-cyclohexyl)-1,2,3,6-tetrahydro-pyridin-4-yl]-thiophene-2-carboxylic acid] gave an IC50 below 3 µM.

For `CC1CCC(C2=C(c3cc(-c4ccc(NC(=O)OC(C)(C)C)cc4)sc3C(=O)O)CCN(C)C2)CC1` (centres unmarked) [Example 012, 5-(4-tert-Butoxycarbonylamino-phenyl)-3-[1-methyl-5-(4-methyl-cyclohexyl)-1,2,3,6-tetrahydro-pyridin-4-yl]-thiophene-2-carboxylic acid], the IC50 was above 10 µM.

As to `COC(=O)c1sc(-c2ccc(NC(=O)c3cscn3)cc2)cc1C1=C(C2CCC(C)CC2)CN(C)CC1` (centres unmarked) [Example 013A], the IC50 is below 3 µM.

On to `CCN1CCC(c2cc(C#CC(C)(C)C)sc2C(=O)O)=C(C2CCC(C)CC2)C1` (centres unmarked) [Example 014, 5-(3,3-Dimethyl-but-1-ynyl)-3-[1-ethyl-5-(4-methyl-cyclohexyl)-1,2,3,6-tetrahydro-pyridin-4-yl]-thiophene-2-carboxylic acid], for which the IC50 is below 3 µM.

Compound `CCN1CCC(c2cc(-c3ccc(-c4cc5ncccn5n4)cc3)sc2C(=O)O)=C(C2CCC(C)CC2)C1` (centres unmarked) [Example 015, 3-[1-Ethyl-5-(4-methyl-cyclohexyl)-1,2,3,6-tetrahydro-pyridin-4-yl]-5-(4-pyrazolo[1,5-a]pyrimidin-2-yl-phenyl)-thiophene-2-carboxylic acid] registered an IC50 below 3 µM.

In the case of `CCN1CCC(c2cc(C#CC3CCCCC3)sc2C(=O)O)=C(C2CCC(C)CC2)C1` (centres unmarked) [Example 016, 5-Cyclohexylethynyl-3-[1-ethyl-5-(4-methyl-cyclohexyl)-1,2,3,6-tetrahydro-pyridin-4-yl]-thiophene-2-carboxylic acid], the IC50 is above 10 µM.

As to `CCN1CCC(c2cc(C#CC3CC3)sc2C(=O)O)=C(C2CCC(C)CC2)C1` (centres unmarked) [Example 017, 5-Cyclopropylethynyl-3-[1-ethyl-5-(4-methyl-cyclohexyl)-1,2,3,6-tetrahydro-pyridin-4-yl]-thiophene-2-carboxylic acid], the IC50 was below 3 µM.

`CCN1CCC(c2cc(-c3ccc(NC(C)=O)cc3)sc2C(=O)O)=C(C2CCC(C)CC2)C1` (centres unmarked) [Example 018, 5-(4-Acetylamino-phenyl)-3-[1-ethyl-5-(4-methyl-cyclohexyl)-1,2,3,6-tetrahydro-pyridin-4-yl]-thiophene-2-carboxylic acid] registered an IC50 of 3 to 10 µM.

Compound `CCN1CCC(c2cc(-c3ccc(NC(=O)c4cscn4)cc3)sc2C(=O)O)=C(C2CCC(C)CC2)C1` (centres unmarked) [Example 019, 3-[1-Ethyl-5-(4-methyl-cyclohexyl)-1,2,3,6-tetrahydro-pyridin-4-yl]-5-{4-[(thiazole-4-carbonyl)-amino]-phenyl}-thiophene-2-carboxylic acid] registered an IC50 below 3 µM.

Compound `CCN1CCC(c2cc(-c3ccc(NC(=O)c4ccccc4)cc3)sc2C(=O)O)=C(C2CCC(C)CC2)C1` (centres unmarked) [Example 020, 5-(4-Benzoylamino-phenyl)-3-[1-ethyl-5-(4-methyl-cyclohexyl)-1,2,3,6-tetrahydro-pyridin-4-yl]-thiophene-2-carboxylic acid] returned an IC50 of 3 to 10 µM.

As to `CCN1CCC(c2cc(C#CC(C)(C)N)sc2C(=O)O)=C(C2CCC(C)CC2)C1` (centres unmarked) [Example 021, 5-(3-Amino-3-methyl-but-1-ynyl)-3-[1-ethyl-5-(4-methyl-cyclohexyl)-1,2,3,6-tetrahydro-pyridin-4-yl]-thiophene-2-carboxylic acid], the IC50 was below 3 µM.

On to `CCN1CCC(c2cc(C#CC(C)(C)NC(=O)c3cscn3)sc2C(=O)O)=C(C2CCC(C)CC2)C1` (centres unmarked) [Example 022, 3-[1-Ethyl-5-(4-methyl-cyclohexyl)-1,2,3,6-tetrahydro-pyridin-4-yl]-5-{3-methyl-3-[(thiazole-4-carbonyl)-amino]-but-1-ynyl}-thiophene-2-carboxylic acid], for which the IC50 was above 10 µM.

The compound `CCN1CCC(c2cc(C#CC(C)(C)N(C)C)sc2C(=O)O)=C(C2CCC(C)CC2)C1` (centres unmarked) [Example 023, 5-(3-Dimethylamino-3-methyl-but-1-ynyl)-3-[1-ethyl-5-(4-methyl-cyclohexyl)-1,2,3,6-tetrahydro-pyridin-4-yl]-thiophene-2-carboxylic acid] registered an IC50 below 3 µM.

With `CCN1CCC(c2cc(-c3cccc(NC(C)=O)c3)sc2C(=O)O)=C(C2CCC(C)CC2)C1` (centres unmarked) [Example 024, 5-(3-Acetylamino-phenyl)-3-[1-ethyl-5-(4-methyl-cyclohexyl)-1,2,3,6-tetrahydro-pyridin-4-yl]-thiophene-2-carboxylic acid], the IC50 is above 10 µM.

`CCN1CCC(c2cc(-c3cccc(NC(=O)c4cscn4)c3)sc2C(=O)O)=C(C2CCC(C)CC2)C1` (centres unmarked) [Example 025, 3-[1-Ethyl-5-(4-methyl-cyclohexyl)-1,2,3,6-tetrahydro-pyridin-4-yl]-5-{3-[(thiazole-4-carbonyl)-amino]-phenyl}-thiophene-2-carboxylic acid] came in with an IC50 above 10 µM.

In turn, `CCN1CCC(c2cc(-c3cccc(N)c3)sc2C(=O)O)=C(C2CCC(C)CC2)C1` (centres unmarked) [Example 026, 5-(3-Amino-phenyl)-3-[1-ethyl-5-(4-methyl-cyclohexyl)-1,2,3,6-tetrahydro-pyridin-4-yl]-thiophene-2-carboxylic acid] returned an IC50 of 3 to 10 µM.

The compound `CCN1CCC(c2cc(-c3cccc(NC(=O)c4cccs4)c3)sc2C(=O)O)=C(C2CCC(C)CC2)C1` (centres unmarked) [Example 027, 3-[1-Ethyl-5-(4-methyl-cyclohexyl)-1,2,3,6-tetrahydro-pyridin-4-yl]-5-{3-[(thiophene-2-carbonyl)-amino]-phenyl}-thiophene-2-carboxylic acid] registered an IC50 above 10 µM.

For `CCN1CCC(c2cc(-c3ccc(NC(=O)c4cccs4)cc3)sc2C(=O)O)=C(C2CCC(C)CC2)C1` (centres unmarked) [Example 028, 3-[1-Ethyl-5-(4-methyl-cyclohexyl)-1,2,3,6-tetrahydro-pyridin-4-yl]-5-{4-[(thiophene-2-carbonyl)-amino]-phenyl}-thiophene-2-carboxylic acid], the IC50 is below 3 µM.

`CCN1CCC(c2cc(C#CCC(C)C)sc2C(=O)O)=C(C2CCC(C)CC2)C1` (centres unmarked) [Example 029, 3-[1-Ethyl-5-(4-methyl-cyclohexyl)-1,2,3,6-tetrahydro-pyridin-4-yl]-5-(4-methyl-pent-1-ynyl)-thiophene-2-carboxylic acid] yielded an IC50 below 3 µM.

As for `CCCC(C)C#Cc1cc(C2=C(C3CCC(C)CC3)CN(CC)CC2)c(C(=O)O)s1` (centres unmarked) [Example 030, 3-[1-Ethyl-5-(4-methyl-cyclohexyl)-1,2,3,6-tetrahydro-pyridin-4-yl]-5-(3-methyl-hex-1-ynyl)-thiophene-2-carboxylic acid], the IC50 is above 10 µM.

Consider `CCN1CCC(c2cc(C#CC3CCCC3)sc2C(=O)O)=C(C2CCC(C)CC2)C1` (centres unmarked) [Example 031, 5-Cyclopentylethynyl-3-[1-ethyl-5-(4-methyl-cyclohexyl)-1,2,3,6-tetrahydro-pyridin-4-yl]-thiophene-2-carboxylic acid], for which the IC50 lay in the range of 3 to 10 µM.

Regarding `CCCC#Cc1cc(C2=C(C3CCC(C)CC3)CN(CC)CC2)c(C(=O)O)s1` (centres unmarked) [Example 032, 3-[1-Ethyl-5-(4-methyl-cyclohexyl)-1,2,3,6-tetrahydro-pyridin-4-yl]-5-pent-1-ynyl-thiophene-2-carboxylic acid], the IC50 is below 3 µM.
